Reference: patent US9493795B2 (Algenol Biofuels Inc., priority 2013, dated 2016)
Like-named read-outs stand apart in the source and are kept apart here.

How the values were obtained:
[1] = tested on: alcohol dehydrogenase from Synechococcus sp., wild type, SEQ ID NO: 6; assay: Km determination of native Adh in cell extract (forward and back reaction), Synechococcus sp. SEQ ID NO: 6; format: biochemical; settings: pH 7.5, 30° C.
Experimental: (§1) Km values of ADH enzymes were determined herein by varying concentrations of one substrate only while keeping all other substrates at saturated levels. The kinetic parameters of the ADH enzymes were determined herein on cellular extracts, and not on pure enzyme. Km was determined herein using a nonlinear regression algorithm for the single-substrate version of the Michaelis-Menten model by using GraphPad Prism Software (version 5). The detailed description of the algorithm is available on the world wide web at “graphpad.com/guides/prism/6/curve-fitting/index.htm?reg_kcat.htm”.
(§2) As used herein, the Km value was measured according to the method described in Example 4. […] For the forward reaction measurement, 0.15 mM NADPH was added, and acetaldehyde was added in differing amounts ranging from […] to 50 mM. The NADPH oxidation was measured at a wavelength of 340 nm.
(§3) In the above aspects, the Km-values represent the Km-values of the native, i.e. non-recombinant, form of the alcohol dehydrogenase enzyme. A Km-value as used herein can be determined from the endogenously expressed alcohol dehydrogenase enzyme of a wild-type cyanobacterial cell. […]
(§4) The reaction was started by addition of varying amounts of acetaldehyde in final concentrations between 1 μM and 50 mM. The NADPH oxidation was spectrophotometrically monitored at a wavelength of 340 nm on a Shimadzu UV2450 spectrophotometer. […]

[2] = tested on: alcohol dehydrogenase from Arthronema africanum, wild type, SEQ ID NO: 8; assay: Km determination of native Adh in cell extract (forward and back reaction), Arthronema africanum; format: biochemical; settings: 0.15 mM NADPH, pH 7.5, 30° C., read-out: Km(MeCHO)
[3] = tested on: alcohol dehydrogenase from Synechococcus sp., wild type, SEQ ID NO: 4; assay: Km determination of native Adh in cell extract (forward and back reaction), Synechococcus sp. SEQ ID NO: 4; format: biochemical; settings: pH 7.5, 30° C.
Experimental: as §1, §2, §3, §4

[4] = tested on: alcohol dehydrogenase from Synechococcus sp., wild type, SEQ ID NO: 5; assay: Km determination of native Adh in cell extract (forward and back reaction), Synechococcus sp. SEQ ID NO: 5; format: biochemical; settings: pH 7.5, 30° C.
Experimental: as §1, §2, §3, §4

[5] = tested on: alcohol dehydrogenase from Chroococcidiopsis sp., wild type, SEQ ID NO: 9; assay: Km determination of native Adh in cell extract (forward and back reaction), Chroococcidiopsis sp. SEQ ID NO: 9; format: biochemical; settings: 0.15 mM NADPH, pH 7.5, 30° C., read-out: Km(MeCHO)
Experimental: as §1, §2, §3, §4

[6] = tested on: alcohol dehydrogenase from Lyngbya sp., wild type, SEQ ID NO: 1; assay: Km determination of native Adh in cell extract (forward and back reaction), Lyngbya sp.; format: biochemical; settings: pH 7.5, 30° C.
[7] = tested on: alcohol dehydrogenase from Cyanothece sp., wild type, SEQ ID NO: 3; assay: Km determination of native Adh in cell extract (forward and back reaction), Cyanothece sp.; format: biochemical; settings: pH 7.5, 30° C.
Adh from LPP = assay: Km determination in the screening, Adh from LPP; format: biochemical; settings: identified in the screening
Experimental: as §1, §2, §3, §4

[8] = tested on: alcohol dehydrogenase AdhA from Moorella sp. HUC22-1; settings: Inokuma et al., Arch Microbiol 188 (2007) 37-45, cited from earlier work
[9] = 0.15 mM NADPH, read-out: Km(MeCHO)
[10] = back reaction, 0.15 mM NADP+, read-out: Km(EtOH)

SMILES: CC=O [acetaldehyde]
- Km [1, 9]: 1130 µM
- Km [2]: 3340 µM
- Km [3, 9]: 731 µM
- Km [4, 9]: 783 µM
- Km [5]: 3730 µM
- Km ([6]; 0.15 mM NADPH, cell extract, Example 13, read-out: Km value for acetaldehyde): 6 µM
- Km ([6]; 0.15 mM NADPH, cell extract, read-out: Km(MeCHO)): 5.8 µM
- Km [7, 9]: 75.6 µM
- Km (Adh from LPP; read-out: Km for acetaldehyde): 120 µM
- Km ([8]; read-out: Km for acetaldehyde): 10000 µM

SMILES: CCO [ethanol]
- Km [1, 10]: 29300 µM
- Km [3, 10]: 32400 µM
- Km [4, 10]: 67000 µM
- Km ([6]; back reaction, 0.15 mM NADP+, cell extract, read-out: Km(EtOH)): 830 µM
- Km [7, 10]: 9330 µM
- Km (Adh from LPP; read-out: Km for ethanol): 3600 µM
- Km ([8]; read-out: Km for ethanol): 40000 µM

SMILES: CCC=O [propanal]
- Km ([6]; as Example 4: 0.15 mM NADPH, FIG. 15A, read-out: Km for propanal): 5.3 µM
